In the NIST ThermoML archive (doi:10.1021/je900219w):

Assays:
[1] = xn = mol fraction of the nth substance listed; details: 101 kPa, Liquid; for viscosity: Capillary tube (Ostwald / Ubbelohde) method; for molar volume: Pycnometric method
[2] = 101 kPa, Liquid; for viscosity: Capillary tube (Ostwald / Ubbelohde) method; for molar volume: Pycnometric method

Cc1cccc(C)c1 [1,3-dimethylbenzene] + CCCCCCO
[1]
Details | molar volume, 303.15 K [m3/mol] | molar volume, 313.15 K [m3/mol] | molar volume, 323.15 K [m3/mol] | viscosity, 303.15 K [mPa·s] | viscosity, 313.15 K [mPa·s] | viscosity, 323.15 K [mPa·s]
x2 = 0 | 0.0001241 | 0.0001254 | 0.0001266 | 0.5501 | 0.4944 | 0.4472
x2 = 0.1 | 0.0001243 | 0.0001256 | 0.0001269 | 0.5979 | 0.5309 | 0.4743
x2 = 0.2 | 0.0001246 | 0.0001258 | 0.0001272 | 0.6825 | 0.5975 | 0.5277
x2 = 0.3 | 0.0001248 | 0.000126 | 0.0001273 | 0.7998 | 0.6894 | 0.6009
x2 = 0.4 | 0.0001249 | 0.0001262 | 0.0001275 | 0.9537 | 0.8068 | 0.6925
x2 = 0.5 | 0.0001251 | 0.0001263 | 0.0001276 | 1.161 | 0.9645 | 0.8141
x2 = 0.6 | 0.0001253 | 0.0001265 | 0.0001277 | 1.442 | 1.173 | 0.97
x2 = 0.7 | 0.0001254 | 0.0001266 | 0.0001278 | 1.833 | 1.457 | 1.179
x2 = 0.8 | 0.0001255 | 0.0001267 | 0.0001279 | 2.357 | 1.833 | 1.448
x2 = 0.9 | 0.0001257 | 0.0001269 | 0.000128 | 3.032 | 2.309 | 1.797

CCCCCCO [hexan-1-ol]
[2]
Details | molar volume [m3/mol] | viscosity [mPa·s]
303.15 K | 0.0001259 | 3.829
313.15 K | 0.000127 | 2.879
323.15 K | 0.0001281 | 2.215

Cc1cccc(C)c1 [1,3-dimethylbenzene]
[2]
Details | molar volume [m3/mol] | viscosity [mPa·s]
303.15 K | 0.0001241 | 0.5501
313.15 K | 0.0001254 | 0.4944
323.15 K | 0.0001266 | 0.4472

CCCCCCO [hexan-1-ol] + Cc1cccc(C)c1
[1], x1 = 1
Details | molar volume [m3/mol] | viscosity [mPa·s]
303.15 K | 0.0001259 | 3.829
313.15 K | 0.000127 | 2.879
323.15 K | 0.0001281 | 2.215
